Assay results from PubChem BioAssay AID1745844 (Carcinogenic Potency Database (CPDB), 2022).
The source made the active and inactive calls. No rule for the calls is given here.

System: rodent lifetime carcinogenesis bioassay, tumor incidence TD50
Experiment: chronic cancer bioassays in animals – CPDB, compiled studies (AID 1745844)

O=C1c2ccccc2C(=O)N1SC(Cl)(Cl)Cl
carcinogen call (mouse, strain B6AKF1, females, oral dosing, site: any site (literature study), lesion: several types, types named in the paper, dosed 76 weeks, study length 76 weeks): negative (inactive) | carcinogen call (mouse, strain B6AKF1, females, oral dosing, site: liver, lesion: hepatoma, dosed 76 weeks, study length 76 weeks): negative (inactive) | carcinogen call (mouse, strain B6AKF1, females, oral dosing, site: lung, lesion: adenoma, dosed 76 weeks, study length 76 weeks): negative (inactive) | carcinogen call (mouse, strain B6AKF1, males, oral dosing, site: any site (literature study), lesion: several types, types named in the paper, dosed 76 weeks, study length 76 weeks): negative (inactive) | TD50 (mouse, strain B6AKF1, males, oral dosing, site: liver, lesion: hepatoma, dosed 76 weeks, study length 76 weeks): 8230 mg/kg/day (inactive) | carcinogen call (mouse, strain B6AKF1, males, oral dosing, site: lung, lesion: adenoma, dosed 76 weeks, study length 76 weeks): negative (inactive) | TD50 (mouse, strain B6C3F1, females, in feed, site: all sites, lesion: malignant lymphoma, dosed 104 weeks, study length 104 weeks): 2200 mg/kg/day | TD50 (mouse, strain B6C3F1, females, in feed, site: duodenum, lesion: adenocarcinoma, dosed 104 weeks, study length 104 weeks): 2090 mg/kg/day | TD50 (mouse, strain B6C3F1, females, in feed, site: duodenum, lesion: adenoma, dosed 104 weeks, study length 104 weeks): 29200 mg/kg/day | TD50 (mouse, strain B6C3F1, females, in feed, site: duodenum, lesion: several types, types named in the paper, dosed 104 weeks, study length 104 weeks): 1670 mg/kg/day | TD50 (mouse, strain B6C3F1, females, in feed, site: liver, lesion: several types, types named in the paper, dosed 104 weeks, study length 104 weeks): 18900 mg/kg/day | TD50 (mouse, strain B6C3F1, females, in feed, site: stomach, nonglandular, lesion: several types, types named in the paper, dosed 104 weeks, study length 104 weeks): 6000 mg/kg/day | TD50 (mouse, strain B6C3F1, females, in feed, site: stomach, nonglandular, lesion: squamous-cell papilloma, dosed 104 weeks, study length 104 weeks): 5780 mg/kg/day | TD50 (mouse, strain B6C3F1, females, oral dosing, site: any site (literature study), lesion: several types, types named in the paper, dosed 76 weeks, study length 76 weeks): 260 mg/kg/day (inactive) | carcinogen call (mouse, strain B6C3F1, females, oral dosing, site: liver, lesion: hepatoma, dosed 76 weeks, study length 76 weeks): negative (inactive) | carcinogen call (mouse, strain B6C3F1, females, oral dosing, site: lung, lesion: several types, types named in the paper, dosed 76 weeks, study length 76 weeks): negative (inactive) | TD50 (mouse, strain B6C3F1, males, in feed, site: duodenum, lesion: adenocarcinoma, dosed 104 weeks, study length 104 weeks): 981 mg/kg/day | TD50 (mouse, strain B6C3F1, males, in feed, site: duodenum, lesion: adenoma, dosed 104 weeks, study length 104 weeks): 23000 mg/kg/day | TD50 (mouse, strain B6C3F1, males, in feed, site: duodenum, lesion: several types, types named in the paper, dosed 104 weeks, study length 104 weeks): 899 mg/kg/day | TD50 (mouse, strain B6C3F1, males, in feed, site: stomach, nonglandular, lesion: several types, types named in the paper, dosed 104 weeks, study length 104 weeks): 5460 mg/kg/day | TD50 (mouse, strain B6C3F1, males, in feed, site: stomach, nonglandular, lesion: squamous-cell carcinoma, dosed 104 weeks, study length 104 weeks): 13100 mg/kg/day | TD50 (mouse, strain B6C3F1, males, in feed, site: stomach, nonglandular, lesion: squamous-cell papilloma, dosed 104 weeks, study length 104 weeks): 12900 mg/kg/day | TD50 (mouse, strain B6C3F1, males, oral dosing, site: any site (literature study), lesion: several types, types named in the paper, dosed 76 weeks, study length 76 weeks): 87.7 mg/kg/day (inactive) | TD50 (mouse, strain B6C3F1, males, oral dosing, site: liver, lesion: hepatoma, dosed 76 weeks, study length 76 weeks): 242 mg/kg/day (inactive) | TD50 (mouse, strain B6C3F1, males, oral dosing, site: lung, lesion: adenoma, dosed 76 weeks, study length 76 weeks): 156 mg/kg/day (inactive) | TD50 (mouse, strain Charles River CD1, females, in feed, site: digestive tract, lesion: several types, types named in the paper, dosed 112 weeks, study length 112 weeks): 2380 mg/kg/day | TD50 (mouse, strain Charles River CD1, females, in feed, site: duodenum, lesion: adenocarcinoma, dosed 112 weeks, study length 112 weeks): 3310 mg/kg/day | TD50 (mouse, strain Charles River CD1, females, in feed, site: duodenum, lesion: adenoma, dosed 112 weeks, study length 112 weeks): 7280 mg/kg/day | TD50 (mouse, strain Charles River CD1, males, in feed, site: digestive tract, lesion: several types, types named in the paper, dosed 112 weeks, study length 112 weeks): 2190 mg/kg/day | TD50 (mouse, strain Charles River CD1, males, in feed, site: duodenum, lesion: adenocarcinoma, dosed 112 weeks, study length 112 weeks): 2400 mg/kg/day | TD50 (mouse, strain Charles River CD1, males, in feed, site: duodenum, lesion: adenoma, dosed 112 weeks, study length 112 weeks): 10300 mg/kg/day | TD50 (mouse, strain Charles River CD1, males, in feed, site: stomach, nonglandular, lesion: papilloma, dosed 112 weeks, study length 112 weeks): 13400 mg/kg/day | TD50 (rat, strain Charles River CD (Sprague-Dawley), males, in feed, site: testis, lesion: interstitial-cell tumor, dosed 104 weeks, study length 104 weeks): 839 mg/kg/day | TD50 (rat, strain Charles River CD (Sprague-Dawley), males, in feed, site: thyroid gland, lesion: several types, types named in the paper, dosed 104 weeks, study length 104 weeks): 2940 mg/kg/day | TD50 (rat, strain Fischer 344, females, in feed, site: all sites, lesion: malignant lymphoma, dosed 104 weeks, study length 104 weeks): 947 mg/kg/day | TD50 (rat, strain Fischer 344, males, in feed, site: all sites, lesion: malignant lymphoma, dosed 104 weeks, study length 104 weeks): 1070 mg/kg/day

C[C@H](CCC(=O)O)[C@H]1CC[C@H]2[C@@H]3CC[C@@H]4C[C@H](O)CC[C@]4(C)[C@H]3CC[C@]12C
TD50 (mouse, strain B6C3F1, females, by gavage, site: any site (literature study), lesion: several types, types named in the paper, dosed 103 weeks, study length 105 weeks): 960 mg/kg/day (inactive) | TD50 (mouse, strain B6C3F1, females, by gavage, site: liver, lesion: hepatocellular adenoma + hepatocellular carcinoma + neoplastic nodule, dosed 103 weeks, study length 105 weeks): 1140 mg/kg/day | TD50 (mouse, strain B6C3F1, females, by gavage, site: lung, lesion: alveolar/bronchiolar adenoma + alveolar/bronchiolar carcinoma, dosed 103 weeks, study length 105 weeks): 1030 mg/kg/day | carcinogen call (mouse, strain B6C3F1, males, by gavage, site: any site (literature study), lesion: several types, types named in the paper, dosed 103 weeks, study length 105 weeks): negative (inactive) | TD50 (mouse, strain B6C3F1, males, by gavage, site: lung, lesion: alveolar/bronchiolar adenoma + alveolar/bronchiolar carcinoma, dosed 103 weeks, study length 105 weeks): 834 mg/kg/day | TD50 (rat, strain Fischer 344, females, by gavage, site: any site (literature study), lesion: several types, types named in the paper, dosed 103 weeks, study length 104 weeks): 686 mg/kg/day (inactive) | TD50 (rat, strain Fischer 344, females, by gavage, site: liver, lesion: hepatocellular adenoma + hepatocellular carcinoma + neoplastic nodule, dosed 103 weeks, study length 104 weeks): 1890 mg/kg/day | TD50 (rat, strain Fischer 344, males, by gavage, site: any site (literature study), lesion: several types, types named in the paper, dosed 103 weeks, study length 104 weeks): 501 mg/kg/day (inactive) | TD50 (rat, strain Fischer 344, males, by gavage, site: liver, lesion: hepatocellular adenoma + hepatocellular carcinoma + neoplastic nodule, dosed 103 weeks, study length 104 weeks): 2250 mg/kg/day

OC[C@H]1OC(OC[C@H]2O[C@H](O)[C@H](O)[C@@H](O)[C@@H]2O)[C@H](O)[C@@H](O)[C@@H]1O (stereo partly specified)
carcinogen call (mouse, strain Charles River CD1, females, in feed, site: liver, lesion: one or several types, types not named, dosed 80 weeks, study length 80 weeks): negative (inactive) | TD50 (mouse, strain Charles River CD1, males, in feed, site: liver, lesion: hepatocellular adenoma, dosed 80 weeks, study length 80 weeks): 46300 mg/kg/day (inactive)

CC1CC(C)(C)CC(OOC(C)(C)C)(OOC(C)(C)C)C1 (stereo unspecified)
TD50 (mouse, strain B6C3F1, females, in feed, site: any site (literature study), lesion: malignant tumor, dosed 78 weeks, study length 83 weeks): 9310 mg/kg/day (inactive) | TD50 (mouse, strain B6C3F1, females, in feed, site: any site (literature study), lesion: one or several types, types not named, dosed 78 weeks, study length 83 weeks): 4230 mg/kg/day (inactive) | carcinogen call (mouse, strain B6C3F1, females, in feed, site: liver, lesion: one or several types, types not named, dosed 78 weeks, study length 83 weeks): negative (inactive) | carcinogen call (mouse, strain B6C3F1, females, in feed, site: lung, lesion: alveolar/bronchiolar adenoma, dosed 78 weeks, study length 83 weeks): negative (inactive) | TD50 (mouse, strain B6C3F1, females, in feed, site: lung, lesion: alveolar/bronchiolar carcinoma, dosed 78 weeks, study length 83 weeks): 19900 mg/kg/day (inactive) | carcinogen call (mouse, strain B6C3F1, males, in feed, site: any site (literature study), lesion: malignant tumor, dosed 78 weeks, study length 83 weeks): negative (inactive) | TD50 (mouse, strain B6C3F1, males, in feed, site: any site (literature study), lesion: one or several types, types not named, dosed 78 weeks, study length 83 weeks): 4980 mg/kg/day (inactive) | TD50 (mouse, strain B6C3F1, males, in feed, site: liver, lesion: hepatocellular adenoma, dosed 78 weeks, study length 83 weeks): 1490 mg/kg/day (inactive) | carcinogen call (mouse, strain B6C3F1, males, in feed, site: liver, lesion: hepatocellular carcinoma, dosed 78 weeks, study length 83 weeks): negative (inactive) | TD50 (mouse, strain B6C3F1, males, in feed, site: lung, lesion: alveolar/bronchiolar adenoma, dosed 78 weeks, study length 83 weeks): 7.6e+09 mg/kg/day (inactive) | carcinogen call (mouse, strain B6C3F1, males, in feed, site: lung, lesion: alveolar/bronchiolar carcinoma, dosed 78 weeks, study length 83 weeks): negative (inactive)

NC1=NCN([C@@H]2O[C@H](CO)[C@@H](O)[C@H]2O)C(=O)N1
TD50 (rat, strain Fischer 344, males, i.p., site: any site (literature study), lesion: one or several types, types not named, dosed 52 weeks, study length 52 weeks): 20.7 mg/kg/day

CC(=O)Nc1ccc2c(c1)Cc1cc(NC(C)=O)ccc1-2
TD50 (monkey, strain Cynomolgus [Macaca fascicularis], both sexes, in feed, site: breast, lesion: carcinoma, dosed 258 weeks, study length 1513 weeks): 307 mg/kg/day | TD50 (monkey, strain Cynomolgus [Macaca fascicularis], both sexes, in feed, site: lung, lesion: alveolar/bronchiolar carcinoma, dosed 258 weeks, study length 1513 weeks): 25.6 mg/kg/day
